Test results reported in BindingDB's records for doi:10.1016/S0960-894X(01)80714-9 (1993).

Experiments:
[1] = The compound was evaluated in vitro for the inhibition of rat leukocyte elastase(RLE)
[2] = The compound was evaluated in vitro for the inhibition of pancreatitic porcine elastase(PPE)

Row | IC50 [1] [µM] | IC50 [2] [µM] | Structure (SMILES)
1 | 37 | > 160 | CCCC[C@@H]1C(=O)N(C(C)=O)[C@@H]1C(C)=O [(3S,4S)-1,4-Diacetyl-3-butyl-azetidin-2-one]
2 | 11 | 26 | CO[C@@H]1C(=O)N(C(C)=O)[C@@H]1C(C)=O [(3S,4S)-1,4-Diacetyl-3-methoxy-azetidin-2-one]
3 | 0.4 | 0.7 | CO[C@@H]1C(=O)N(C(C)=O)[C@@H]1c1ccccc1 [(3S,4R)-1-Acetyl-3-methoxy-4-phenyl-azetidin-2-one]
